Measurements reported in US20240269136A1, “EGFR INHIBITOR AND PERK ACTIVATOR IN COMBINATION THERAPY AND THEIR USE FOR TREATING CANCER” (Genentech, Inc., priority 2021, published 2024).
Read-outs that look alike come from different tables or passages of the source.

Tested on: PC9 cells
Experiment: CellTiter-Glo Luminescent Cell Viability Assay, PC9 cells, EGFR inhibitors and PERK activators alone and in combination
Format: cell-based
Protocol: PC9 cells were seeded in replicates in 96-well plates and allowed to attach overnight. The following day cells were treated with the indicated compounds or compound combinations at the indicated concentrations. Cell survival was measured 72 h post-treatment using CellTiter-Glo Luminescent Cell Viability Assay (Promega, G7572). Quantification of the fold decrease in cell viability was determined for single agent activity and for combinations relative to the DMSO-treated control (as shown in Table 1A and 1B). Mean (u) and standard deviation (o) was determined for biological triplicates using Microsoft Excel.

[1] = combination: CCT-020312 2 μM + EGFRi 0.1 μM, PC9, 72 h, relative to DMSO
[2] = combination: CCT-020312 2 μM + EGFRi 1 μM, PC9, 72 h, relative to DMSO
[3] = combination: DHBDC 50 μM + EGFRi 0.1 μM, PC9, 72 h, relative to DMSO
[4] = combination: DHBDC 50 μM + EGFRi 1 μM, PC9, 72 h, relative to DMSO
[5] = combination: IPA 1 μM + EGFRi 0.1 μM, PC9, 72 h, relative to DMSO
[6] = combination: IPA 1 μM + EGFRi 1 μM, PC9, 72 h, relative to DMSO
[7] = combination: MK-28 20 μM + EGFRi 0.1 μM, PC9, 72 h, relative to DMSO
[8] = combination: MK-28 20 μM + EGFRi 1 μM, PC9, 72 h, relative to DMSO
[9] = single agent, EGFRi 0.1 μM, PC9, 72 h, relative to DMSO, mean of biological triplicates
[10] = single agent, EGFRi 1 μM, PC9, 72 h, relative to DMSO, mean of biological triplicates
[11] = combination: CCT-020312 2 μM + EGFRi 0.01 μM, PC9, 72 h, relative to DMSO
[12] = combination: DHBDC 50 μM + EGFRi 0.01 μM, PC9, 72 h, relative to DMSO
[13] = combination: IPA 1 μM + EGFRi 0.01 μM, PC9, 72 h, relative to DMSO
[14] = combination: MK-28 20 μM + EGFRi 0.01 μM, PC9, 72 h, relative to DMSO
[15] = single agent, EGFRi 0.01 μM, PC9, 72 h, relative to DMSO, mean of biological triplicates

| SMILES | CCT-020312 + Low EGFRi, fold decrease in cell viability (μ) [1] [fold] | CCT-020312 + High EGFRi, fold decrease in cell viability (μ) [2] [fold] | DHBDC + Low EGFRi, fold decrease in cell viability (μ) [3] [fold] | DHBDC + High EGFRi, fold decrease in cell viability (μ) [4] [fold] | IPA + Low EGFRi, fold decrease in cell viability (μ) [5] [fold] | IPA + High EGFRi, fold decrease in cell viability (μ) [6] [fold] | MK-28 + Low EGFRI, fold decrease in cell viability (μ) [7] [fold] | MK-28 + High EGFRi, fold decrease in cell viability (μ) [8] [fold] | Low EGFRi, fold decrease in cell viability (μ) [9] [fold] | High EGFRi, fold decrease in cell viability (μ) [10] [fold] | CCT-020312 + Low EGFRi, fold decrease in cell viability (μ) [11] [fold] | CCT-020312 + High EGFRi, fold decrease in cell viability (μ) [1] [fold] | DHBDC + Low EGFRi, fold decrease in cell viability (μ) [12] [fold] | DHBDC + High EGFRi, fold decrease in cell viability (μ) [3] [fold] | IPA + Low EGFRi, fold decrease in cell viability (μ) [13] [fold] | IPA + High EGFRi, fold decrease in cell viability (μ) [5] [fold] | MK-28 + Low EGFRI, fold decrease in cell viability (μ) [14] [fold] | MK-28 + High EGFRi, fold decrease in cell viability (μ) [7] [fold] | Low EGFRi, fold decrease in cell viability (μ) [15] [fold] | High EGFRi, fold decrease in cell viability (μ) [9] [fold] | further results |
| --- | --- | --- | --- | --- | --- | --- | --- | --- | --- | --- | --- | --- | --- | --- | --- | --- | --- | --- | --- | --- | --- |
| Cc1cc(C(=O)Nc2nc3cccc(Cl)c3n2[C@@H]2CCCCN(C(=O)/C=C/CN(C)C)C2)ccn1 (racemic) [Nazartinib, N-[7-chloro-1-[rac-(3R)-1-[rac-(E)-4-(dimethylamino)but-2-enoyl]azepan-3-yl]benzimidazol-2-yl]-2-methyl-pyridine-4-carboxamide] | 255.4 | 1514.1 | 25.8 | 53.6 | 44.0 | 205.5 | 130.5 | 421.8 | 6.3 | 15.0 |  |  |  |  |  |  |  |  |  |  |  |
| C=CC(=O)N[C@H]1C=C(C)c2c(-c3cnc4ccccc4c3)c3c(N)ncnc3n2C1 (racemic) [TAS-6417, N-[rac-(8S)-4-amino-6-methyl-5-(3-quinolyl)-8,9-dihydropyrimido[5,4-b]indolizin-8-yl]prop-2-enamide] |  |  |  |  |  |  |  |  |  |  | 505.3 | 1235.6 | 50.9 | 71.8 | 72.3 | 89.5 | 158.3 | 301.6 | 10.5 | 13.6 |  |
| COc1cc2ncnc(Nc3ccc(F)c(Cl)c3)c2cc1NC(=O)/C=C/CN1CCCCC1 [Dacomitinib, (E)-N-[4-(3-chloro-4-fluoro-anilino)-7-methoxy-quinazolin-6-yl]-4-(1-piperidyl)but-2-enamide] |  |  |  |  |  |  |  |  |  |  | 731.1 | 1325.3 | 66.5 | 85.2 | 79.2 | 275.2 | 170.8 | 241.8 | 13.6 | 14.5 |  |
| C=CC(=O)Nc1cc(Nc2nccc(-c3cn(C)c4ccccc34)n2)c(OC)cc1N(C)CCN(C)C [Osimertinib, N-[2-[2-(dimethylamino)ethyl-methyl-amino]-4-methoxy-5-[[4-(1-methylindol-3-yl)pyrimidin-2-yl]amino]phenyl]prop-2-enamide] |  |  |  |  |  |  |  |  |  |  |  |  |  |  |  |  |  |  |  |  | CCT-020312 + High EGFRi, fold decrease in cell viability (μ): 836.5 fold; CCT-020312 + Low EGFRi, fold decrease in cell viability (μ): 38.4 fold; DHBDC + High EGFRi, fold decrease in cell viability (μ): 64.2 fold; DHBDC + Low EGFRi, fold decrease in cell viability (μ): 13.6 fold; High EGFRi, fold decrease in cell viability (μ): 12.6 fold; IPA + High EGFRi, fold decrease in cell viability (μ): 67.3 fold; IPA + Low EGFRi, fold decrease in cell viability (μ): 9.9 fold; Low EGFRi, fold decrease in cell viability (μ): 2.1 fold; MK-28 + High EGFRi, fold decrease in cell viability (μ): 220.3 fold; MK-28 + Low EGFRI, fold decrease in cell viability (μ): 72.7 fold |
| C=CC(=O)N1CCC(Oc2cc3c(Nc4ccc(Cl)c(Cl)c4F)ncnc3cc2OC)CC1 [Poziotinib, 1-[4-[4-(3,4-dichloro-2-fluoro-anilino)-7-methoxy-quinazolin-6-yl]oxy-1-piperidyl]prop-2-en-1-one] |  |  |  |  |  |  |  |  |  |  | 716.9 | 1168.4 | 74.1 | 88.4 | 107.6 | 132.4 | 181.5 | 295.2 | 14.3 | 15.4 |  |
| C=CC(=O)Nc1cccc(Nc2nc(Nc3ccc(N4CCN(C(C)=O)CC4)cc3OC)ncc2C(F)(F)F)c1 [Rociletinib, N-[3-[[2-[4-(4-acetylpiperazin-1-yl)-2-methoxy-anilino]-5-(trifluoromethyl)pyrimidin-4-yl]amino]phenyl]prop-2-enamide] | 5.1 | 446.1 | 5.3 | 88.0 | 6.4 | 142.3 | 49.2 | 268.9 | 1.3 | 7.0 |  |  |  |  |  |  |  |  |  |  |  |
| C=CC(=O)Nc1cccc(Oc2nc(Nc3ccc(N4CCN(C)CC4)cc3OC)ncc2Cl)c1 [WZ-4002, N-[3-[5-chloro-2-[2-methoxy-4-(4-methylpiperazin-1-yl)anilino]pyrimidin-4-yl]oxyphenyl]prop-2-enamide] | 49.8 | 1482.6 | 13.2 | 52.0 | 10.3 | 106.0 | 120.3 | 422.1 | 2.6 | 13.5 |  |  |  |  |  |  |  |  |  |  |  |
